Measurements from ChEMBL document CHEMBL3885861, “Open TG-GATES”.

Organism: Rattus norvegicus
Assay: Open TG-GATES - Regimen: Single
Format: toxicity, organism-based, Sprague-Dawley
Design: regimen Single, gender Male, age 6 weeks
Conditions: in vivo, po, 15 mg/kg, route gavage, dose level Low; for APTT / Bas / Eos / Fbg / Hb / Ht / Lym / MCH / MCHC / MCV / Mono / Neu / PT / Plat / RBC / Ret / WBC: tissue Blood; for KIDNEY_L / KIDNEY_R / KIDNEY_TOTAL: tissue Kidney; for LIVER: tissue Liver; for A/G / ALP / ALT / AST / BUN / CRE / Ca / Cl / DBIL / GLC / IP / K / LDH / Na / PL / RALB / TBIL / TC / TG / TP / gamma-GTP: tissue Plasma

Nc1nc(N)c2nc(-c3ccccc3)c(N)nc2n1
TERMINAL_BW (3 h): 213.1 g | APTT (3 h): 16.6 s | Bas (3 h): 0% | Eos (3 h): 1% | Fbg (3 h): 307 mg/dL | Hb (3 h): 14.2 g/dL | Ht (3 h): 42.9% | Lym (3 h): 78.2% | MCH (3 h): 21.5 pg | MCHC (3 h): 33% | MCV (3 h): 65.1 fL | Mono (3 h): 3.4% | Neu (3 h): 17% | PT (3 h): 14.3 s | Plat (3 h): 129.9 x10_4/uL | RBC (3 h): 659.2 x10_4/ul | Ret (3 h): 7.7% | WBC (3 h): 86.3 x10_2/uL | KIDNEY_L (3 h): 1 g | KIDNEY_R (3 h): 1 g | KIDNEY_TOTAL (3 h): 2 g | LIVER (3 h): 9.6 g | A/G (3 h): 0.9 | ALP (3 h): 1340.6 IU/L | ALT (3 h): 39.8 IU/L | AST (3 h): 73.2 IU/L | BUN (3 h): 10.4 mg/dL | CRE (3 h): 0.2 mg/dL | Ca (3 h): 11 mg/dL | Cl (3 h): 105.2 meq/L | DBIL (3 h): 0.008 mg/dL | GLC (3 h): 170.2 mg/dL | IP (3 h): 8.6 mg/dL | K (3 h): 4.6 meq/L | LDH (3 h): 56.2 IU/L | Na (3 h): 141.2 meq/L | PL (3 h): 144 mg/dL | RALB (3 h): 2.7 g/dL | TBIL (3 h): 0.05 mg/dL | TC (3 h): 76.2 mg/dL | TG (3 h): 81.4 mg/dL | TP (3 h): 5.6 g/dL | gamma-GTP (3 h): 1.2 IU/L | TERMINAL_BW (6 h): 211.9 g | APTT (6 h): 16.3 s | Bas (6 h): 0.4% | Eos (6 h): 1% | Fbg (6 h): 292.4 mg/dL | Hb (6 h): 13.8 g/dL | Ht (6 h): 41.6% | Lym (6 h): 76% | MCH (6 h): 21.2 pg | MCHC (6 h): 33.2% | MCV (6 h): 63.9 fL | Mono (6 h): 2.6% | Neu (6 h): 19.6% | PT (6 h): 14.3 s | Plat (6 h): 117.9 x10_4/uL | RBC (6 h): 651.8 x10_4/ul | Ret (6 h): 7.8% | WBC (6 h): 88.3 x10_2/uL | KIDNEY_L (6 h): 1 g | KIDNEY_R (6 h): 1 g | KIDNEY_TOTAL (6 h): 1.9 g | LIVER (6 h): 9 g | A/G (6 h): 1 | ALP (6 h): 1353.4 IU/L | ALT (6 h): 38.2 IU/L | AST (6 h): 72.8 IU/L | BUN (6 h): 9.2 mg/dL | CRE (6 h): 0.2 mg/dL | Ca (6 h): 10.8 mg/dL | Cl (6 h): 105.6 meq/L | DBIL (6 h): 0.008 mg/dL | GLC (6 h): 167.8 mg/dL | IP (6 h): 9.9 mg/dL | K (6 h): 4.4 meq/L | LDH (6 h): 56.4 IU/L | Na (6 h): 142.6 meq/L | PL (6 h): 138.4 mg/dL | RALB (6 h): 2.6 g/dL | TBIL (6 h): 0.062 mg/dL | TC (6 h): 77 mg/dL | TG (6 h): 49.8 mg/dL | TP (6 h): 5.4 g/dL | gamma-GTP (6 h): 1.2 IU/L | TERMINAL_BW (9 h): 206.1 g | APTT (9 h): 16.7 s | Bas (9 h): 0% | Eos (9 h): 0.8% | Fbg (9 h): 322.4 mg/dL | Hb (9 h): 14 g/dL | Ht (9 h): 42.2% | Lym (9 h): 77.6% | MCH (9 h): 21.2 pg | MCHC (9 h): 33.2% | MCV (9 h): 64 fL | Mono (9 h): 2.4% | Neu (9 h): 18.2% | PT (9 h): 13.9 s | Plat (9 h): 128.2 x10_4/uL | RBC (9 h): 659.6 x10_4/ul | Ret (9 h): 7.5% | WBC (9 h): 82.6 x10_2/uL | KIDNEY_L (9 h): 1 g | KIDNEY_R (9 h): 1 g | KIDNEY_TOTAL (9 h): 2 g | LIVER (9 h): 8.3 g | A/G (9 h): 0.9 | ALP (9 h): 1426 IU/L | ALT (9 h): 39 IU/L | AST (9 h): 67.4 IU/L | BUN (9 h): 9.2 mg/dL | CRE (9 h): 0.2 mg/dL | Ca (9 h): 10.8 mg/dL | Cl (9 h): 106.2 meq/L | DBIL (9 h): 0.006 mg/dL | GLC (9 h): 163 mg/dL | IP (9 h): 9.9 mg/dL | K (9 h): 4.1 meq/L | LDH (9 h): 47.8 IU/L | Na (9 h): 143 meq/L | PL (9 h): 144 mg/dL | RALB (9 h): 2.7 g/dL | TBIL (9 h): 0.056 mg/dL | TC (9 h): 84.8 mg/dL | TG (9 h): 41.4 mg/dL | TP (9 h): 5.5 g/dL | gamma-GTP (9 h): 1.2 IU/L | TERMINAL_BW (24 h): 226.6 g | APTT (24 h): 19 s | Bas (24 h): 0% | Eos (24 h): 1% | Fbg (24 h): 289.6 mg/dL | Hb (24 h): 14 g/dL | Ht (24 h): 41.7% | Lym (24 h): 83.6% | MCH (24 h): 21.1 pg | MCHC (24 h): 33.6% | MCV (24 h): 62.7 fL | Mono (24 h): 1.6% | Neu (24 h): 12.8% | PT (24 h): 14 s | Plat (24 h): 121.6 x10_4/uL | RBC (24 h): 664.8 x10_4/ul | Ret (24 h): 6.2% | WBC (24 h): 84.7 x10_2/uL | KIDNEY_L (24 h): 1 g | KIDNEY_R (24 h): 1 g | KIDNEY_TOTAL (24 h): 2 g | LIVER (24 h): 10.5 g | A/G (24 h): 0.9 | ALP (24 h): 1713.2 IU/L | ALT (24 h): 44.8 IU/L | AST (24 h): 67.4 IU/L | BUN (24 h): 15.2 mg/dL | CRE (24 h): 0.2 mg/dL | Ca (24 h): 11 mg/dL | Cl (24 h): 105.4 meq/L | DBIL (24 h): 0.012 mg/dL | GLC (24 h): 183.2 mg/dL | IP (24 h): 8.3 mg/dL | K (24 h): 4.1 meq/L | LDH (24 h): 58.4 IU/L | Na (24 h): 143.6 meq/L | PL (24 h): 153.2 mg/dL | RALB (24 h): 2.7 g/dL | TBIL (24 h): 0.044 mg/dL | TC (24 h): 79.4 mg/dL | TG (24 h): 87.8 mg/dL | TP (24 h): 5.4 g/dL | gamma-GTP (24 h): 1 IU/L
